Data from paper PMC8645336, “Benchmarking a highly selective USP30 inhibitor for enhancement of mitophagy and pexophagy” (Life Science Alliance, 2021).

Key:
USP19 = biological target: T1, USP19 (Homo sapiens, UniProt O94966); test: biochemical; design: Ubiquigent DUB profiler selectivity panel, remaining enzyme activity as % of control; conditions: read-out: % of control remaining
T1 sequence (O94966 1-1318): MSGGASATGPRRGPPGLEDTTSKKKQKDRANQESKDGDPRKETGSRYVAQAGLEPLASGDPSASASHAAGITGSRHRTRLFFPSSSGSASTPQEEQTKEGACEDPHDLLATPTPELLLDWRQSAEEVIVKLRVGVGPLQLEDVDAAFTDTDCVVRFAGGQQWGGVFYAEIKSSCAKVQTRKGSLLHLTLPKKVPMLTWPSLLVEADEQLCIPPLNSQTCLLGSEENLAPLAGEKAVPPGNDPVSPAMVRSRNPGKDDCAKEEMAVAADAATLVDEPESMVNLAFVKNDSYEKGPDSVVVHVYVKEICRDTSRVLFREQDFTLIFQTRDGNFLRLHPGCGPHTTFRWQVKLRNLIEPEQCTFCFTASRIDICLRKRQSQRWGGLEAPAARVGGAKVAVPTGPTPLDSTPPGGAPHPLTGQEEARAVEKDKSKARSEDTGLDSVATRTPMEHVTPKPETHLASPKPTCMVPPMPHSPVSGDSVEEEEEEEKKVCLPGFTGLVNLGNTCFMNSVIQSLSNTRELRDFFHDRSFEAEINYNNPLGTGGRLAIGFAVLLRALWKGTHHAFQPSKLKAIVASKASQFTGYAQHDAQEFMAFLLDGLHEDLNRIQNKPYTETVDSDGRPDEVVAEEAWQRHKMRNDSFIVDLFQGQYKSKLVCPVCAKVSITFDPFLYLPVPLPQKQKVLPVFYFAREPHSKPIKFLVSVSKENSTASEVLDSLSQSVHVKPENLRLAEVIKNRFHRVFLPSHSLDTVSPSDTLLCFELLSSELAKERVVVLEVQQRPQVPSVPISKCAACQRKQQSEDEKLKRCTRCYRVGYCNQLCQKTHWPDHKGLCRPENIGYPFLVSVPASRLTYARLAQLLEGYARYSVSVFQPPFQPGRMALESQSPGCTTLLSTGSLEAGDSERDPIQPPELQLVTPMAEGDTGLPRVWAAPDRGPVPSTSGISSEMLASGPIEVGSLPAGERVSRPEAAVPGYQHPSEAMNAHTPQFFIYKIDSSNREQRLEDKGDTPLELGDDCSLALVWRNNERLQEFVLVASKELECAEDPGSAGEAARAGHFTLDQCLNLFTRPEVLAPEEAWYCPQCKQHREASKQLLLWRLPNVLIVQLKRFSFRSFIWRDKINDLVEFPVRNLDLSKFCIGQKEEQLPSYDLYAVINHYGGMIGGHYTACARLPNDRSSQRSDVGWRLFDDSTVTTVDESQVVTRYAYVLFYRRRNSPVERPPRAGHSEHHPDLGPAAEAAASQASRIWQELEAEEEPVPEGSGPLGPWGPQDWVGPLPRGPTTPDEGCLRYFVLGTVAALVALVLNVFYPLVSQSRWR
Procedure, shortened: (§1)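 In YFP-PRKN-overexpressing hTERT-RPE1 cells, 1 h antimycin A plus oligomycin A (1 μM each) with CMPD-39, then Western blot of TOMM20 ubiquitylation. Target engagement: 2 h compound, then 10 min HA-Ub-PA at 37°C, read as USP30 shift. DUB panel (>40 enzymes) screened at 1-100 μM.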

OTUD3 = biological target: T2, OTUD3 (Homo sapiens, UniProt Q5T2D3); test: biochemical; design: Ubiquigent DUB profiler selectivity panel, remaining enzyme activity as % of control; conditions: read-out: % of control remaining
T2 sequence (Q5T2D3 1-398): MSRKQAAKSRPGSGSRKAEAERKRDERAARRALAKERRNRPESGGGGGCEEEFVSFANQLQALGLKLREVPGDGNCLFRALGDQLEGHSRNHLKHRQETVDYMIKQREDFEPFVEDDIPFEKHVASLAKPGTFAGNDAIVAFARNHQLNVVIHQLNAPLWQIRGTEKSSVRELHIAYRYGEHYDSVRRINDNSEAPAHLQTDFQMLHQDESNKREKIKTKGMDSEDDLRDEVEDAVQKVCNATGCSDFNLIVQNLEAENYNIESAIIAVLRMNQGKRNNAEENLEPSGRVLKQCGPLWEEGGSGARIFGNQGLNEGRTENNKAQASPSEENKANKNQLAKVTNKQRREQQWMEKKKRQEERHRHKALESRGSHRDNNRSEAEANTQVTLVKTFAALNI
Procedure, shortened: as §1

CC(C)(C)NS(=O)(=O)c1ccc(NC(=O)[C@H](Cc2ccccc2)NC(=O)c2ccc(F)cc2)cc1 [compound 39, CMPD-39]
remaining activity at 1 µM (USP19): 107%
remaining activity at 10 µM (USP19): 99.7%
remaining activity at 100 µM (USP19): 99.8%
remaining activity at 1 µM (OTUD3): 105%
remaining activity at 10 µM (OTUD3): 101%
remaining activity at 100 µM (OTUD3): 107%
